Source: US20240173403A1, “Combination of AXL Antibodies and ACE Inhibitors in the Treatment of Fibrosis” (BERGENBIO ASA, priority 2021, published 2024)
“Also recorded” adds a separate entry of the source. Read-outs that look alike come from different tables or passages of the source.

Experiments:
[1] = system: TIMP-1; experiment: TIMP-1 levels in human PCKS culture supernatants (ELISA); type: cell-based
Procedure: (§1) PCKS were prepared from explanted kidney tissue and rested for 24 hours to allow the post-slicing stress period to elapse before experiments began. All PCKS were harvested at 96 hrs.
(§2) PCKS were incubated for a 24 hr rest period. Post-rest, PCKS were incubated for a further 72 hrs in the presence or absence of inhibitors. PCKS culture media, including all compounds, was refreshed and harvested at 24 hrs intervals. All PCKS were harvested at 96 hrs.
(§3) Tissue culture supernatant (n=3 paired wells) were collected every 24 hrs and snap frozen for quantification of soluble outputs. At 96 hrs n=4 PCKS were snap frozen for RNA extraction and n=2 PCKS were formalin fixed paraffin embedded (FFPE) for IHC.
(§4) Levels of collagen 1a1, IL-6, Hyaluronic Acid and TIMP-1 in the tissue culture supernatants (n=165 samples per donor) were quantified using R&D Duoset ELISA kits.

[2] = system: Hyaluronic Acid; experiment: Hyaluronic Acid levels in human PCKS culture supernatants (ELISA); type: cell-based; conditions: Nintedanib 4 μM
Procedure: as §1, §2, §3, §4

[3] = system: Collagen 1a1; experiment: Collagen 1a1 levels in human PCKS culture supernatants (ELISA); type: cell-based
Procedure: as §1, §2, §3, §4
Levels of collagen 1a1 in the tissue culture supernatants were quantified using R&D Duoset ELISA kits.

[4] = system: αSMA (activated myofibroblasts); experiment: α-SMA staining of PCKS sections, % area positive; type: cell-based, human; conditions: 96 hrs harvest
Procedure: as §1, §3
FFPE tissue was cut into 5 μm sections and stained for Picrosirius Red and α-Smooth Muscle Actin (αSMA) (n=19 samples per donor). Analysis was performed by a pathology trained technical staff member without knowledge of the sample ID. High magnification images were taken of each slide and analysed for the surface area covered by the stain (e.g. percentage area positive for Oil Red O, Picrosirius or αSMA).
α-SMA stained PCKS sections were prepared. Up to 25 high magnification images (×20) from each PCKS were quantified for the percentage area of tissue positive for stain and averaged to give a mean tissue area positive for α-SMA.
Histological effects of treatments were assessed on the basis of changes in percentage positive area stained for αSMA (activated myofibroblasts) and Picrosirius Red (collagen deposition).

[5] = system: kidney fibrosis; conditions: UUO mice, bemcentinib monotherapy, Landolt et al. 2019, cited from earlier work
[6] = system: lung fibrosis; conditions: two mouse lung fibrosis models; Espindola et al. 2018; cited from earlier work
[7] = system: IL-6; experiment: IL-6 levels in human PCKS culture supernatants (ELISA); type: cell-based; conditions: two of the high doses of Bemcentinib; early time point (48 hrs)
Procedure: as §1, §2, §3, §4

[8] = system: liver fibrosis; conditions: mice; Barcena et al. 2015; cited from earlier work
[9] = 4 μM, 72 hrs and 96 hrs of treatment, positive control
[10] = Enalapril alone (0.75, 0.15 μM)
[11] = Tilvestamab monotherapy (1 to 125 μg/mL)

## COC(=O)c1ccc2c(c1)NC(=O)/C2=C(\Nc1ccc(N(C)C(=O)CN2CCN(C)CC2)cc1)c1ccccc1 [Nintedanib]
[1]; [9]
  TIMP-1 production: significantly inhibit TIMP-1 production
[2]
  Hyaluronic acid: readily reduced
[3]; [9]
  Collagen 1a1 production: inhibited Collagen 1a1 production

## CCOC(=O)[C@H](CCc1ccccc1)N[C@@H](C)C(=O)N1CCC[C@H]1C(=O)O [Enalapril]
[1]; [10]
  TIMP-1 secretion: did not show any efficacy towards reducing TIMP-1 secretion
[4]; Enalapril singly, 0.15 μM
  αSMA, percentage positive area: reduced
[4]; Enalapril singly, 0.15 μM, listed as Enalaril
  αSMA, percentage positive area: reduce expression of the fibrotic marker αSMA
[3]; [10]
  Collagen 1a1 secretion: did not show any efficacy towards reducing Collagen 1a1 secretion

## Nc1nc(Nc2ccc3c(c2)CC[C@@H](N2CCCC2)CC3)nn1-c1cc2c(nn1)-c1ccccc1CCC2 [Bemcentinib, 1-(6,7-dihydro-5H-benzo[6,7]cyclohepta[1,2-c]pyridazin-3-yl)-N^3-((7-(S)-pyrrolidin-1-yl)-6,7,8,9-tetrahydro-5H-benzo[7]annulene-2-yl)-1H-1,2,4-triazole-3,5-diamine]
[1]; Bemcentinib monotherapy, all doses (0.11, 0.33, 1, 3 μM)
  TIMP-1 production: able to reduce production of the fibrotic markers Collagen 1a1 and TIMP-1 at all doses
[5]
  fibrosis development in kidney: attenuate fibrosis and reduce inflammation
[5]; listed as bemcentinib
  fibrosis development in kidney: less fibrosis development
[4]; Bemcentinib singly, 3 μM
  αSMA, percentage positive area: reduce expression of the fibrotic marker αSMA; also recorded: reduced
[6]
  fibrosis development in lung: reduction in fibrosis development
[7]
  IL-6 secretion: spike in IL-6 secretion
[3]; Bemcentinib monotherapy, all doses (0.11, 0.33, 1, 3 μM), not dose dependent
  Collagen 1a1 production: able to reduce production of the fibrotic markers Collagen 1a1 and TIMP-1 at all doses
[8]
  liver fibrosis: reduced liver fibrosis

B1: Tilvestamab: novel humanized anti-AXL antibody that blocks GAS6-mediated AXL receptor activation; VH SEQ ID No.1, VL SEQ ID No.2 (antibody, V domains shown)
VH: EVQLVESGGGLVQPGGSLRLSCAASGYSFTDFYINWVRQAPGKGLEWVARIFPGGDNTYYNEKFKGRFTLSADTSKSTAYLQMNSLRAEDTAVYYCARRGLYYAMDYWGQGTLVTVSS
VL: DIQMTQSPSSLSASVGDRVTITCRSSQSLVHSNGIPYLHWYQQKPGKAPKLLIYRVSNRFSGVPSRFSGSGSGTDFTLTISSLQPEDFATYYCSQGTHVPPTFGQGTKVEIK
modifications: BGB149 VH; BGB149 VL
[1]; [11]
  TIMP-1 secretion: no effect on reducing Collagen 1a1 or TIMP-1 secretion; also recorded: no effect on reducing TIMP-1 secretion
[4]; Tilvestamab singly, three of the highest doses
  αSMA, percentage positive area: did reduce αSMA; also recorded: reduced
[3]; [11]
  Collagen 1a1 secretion: no effect on reducing Collagen 1a1 or TIMP-1 secretion; also recorded: no effect on reducing Collagen 1a1 secretion
